{
  "source": "paper PMC4822253",
  "about": "“Inhibition of BMP and of TGFβ receptors downregulates expression of XIAP and TAK1 leading to lung cancer cell death” (Molecular Cancer, 2016)",
  "key": {"[1]": {"assay": "Plasma protein binding by equilibrium dialysis", "assay_type": "in vitro ADME", "details": "human plasma"}, "[2]": {"assay": "Plasma protein binding by equilibrium dialysis", "assay_type": "in vitro ADME", "details": "mouse plasma"}, "[3]": {"assay": "Pharmacokinetics in mice", "assay_type": "in vivo", "details": "BALB/c mice; 2 mg/kg tail vein injection and 10 mg/kg p.o. study", "description": "Three mice at each time point were dosed with a 2 mg/kg tail vein injection and 10 mg/kg p.o. Blood samples were taken 0.08, 0.25, 0.5, 1, 2, 4, 8, 12, and 24 h (i.v.) and 0.25, 0.5, 1, 2, 4, 6, 8, 12, and 24 h (p.o.). Plasma half-life, clearance, and volume of distribution were then determined."}, "[4]": {"tested_on": "H1299 Id1-luc tumor xenografts", "assay": "Tumor xenograft Id1 promoter-luciferase luminescence", "assay_type": "in vivo, nude mice", "details": "3 mg/kg IP; 4 h, 24 h, and 48 h following treatment; greatest effect at 24 h", "description": "H1299 cells were stably transfected with the Id1 promoter-luciferase reporter. Five million cells were injected subcutaneously into the flank of NCI female nude mice. After approximately 12 days the mice were anesthetized and the luciferase activity measured. Baseline luciferase activity was obtained just prior to the injection of inhibitors. Mice were injected IP with 150 mg/kg luciferin-D and after a 15-min uptake period tumors were imaged with IVIS Spectrum and analyzed using Living Image software. […] The tumors were harvested on ice, homogenized, and placed in lysis buffer."}, "[5]": {"tested_on": "H1299 tumor xenografts", "assay": "Western blot analysis of tumor xenografts", "assay_type": "in vivo, nude mice", "description": "Total cellular protein was prepared using RIPA buffer containing a protease inhibitor cocktail and protein concentration was measured using the BCA assay as described. In brief, protein was analyzed by SDS-PAGE, transferred to nitrocellulose (Schleicher and Schuell, Keene, NH). After blocking, the blots were incubated overnight at 4 °C with the appropriate primary antibody in Tris-buffered saline with 1 % Tween (TBST) and 5 % BSA. Secondary antibodies were applied for 1 h at room temperature. Specific proteins were detected using the enhanced chemiluminescence system (Amersham, Arlington Heights, IL). […]\nH1299 cells were stably transfected with the Id1 promoter-luciferase reporter. […] After approximately 12 days the mice were anesthetized and the luciferase activity measured. […] Mice were injected IP with 150 mg/kg luciferin-D and after a 15-min uptake period tumors were imaged with IVIS Spectrum and analyzed using Living Image software. […]"}, "[6]": {"tested_on": "A549 cells", "assay": "Western blot analysis of cells in culture", "assay_type": "cell-based", "description": "(§1) Total cellular protein was prepared using RIPA buffer containing a protease inhibitor cocktail and protein concentration was measured using the BCA assay as described. In brief, protein was analyzed by SDS-PAGE, transferred to nitrocellulose (Schleicher and Schuell, Keene, NH). After blocking, the blots were incubated overnight at 4 °C with the appropriate primary antibody in Tris-buffered saline with 1 % Tween (TBST) and 5 % BSA. Secondary antibodies were applied for 1 h at room temperature. Specific proteins were detected using the enhanced chemiluminescence system (Amersham, Arlington Heights, IL). The primary antibodies that were used were rabbit monoclonal anti-pSmad 1/5, rabbit monoclonal anti-pSmad2, rabbit monoclonal anti-Smad2, rabbit monoclonal anti-pTAK1, rabbit monoclonal XIAP, rabbit anti-monoclonal p-p65, rabbit monoclonal anti-activated caspase-3, rabbit polyclonal anti-BMPRII, and rabbit monoclonal anti-EGR-1 (Cell signaling Technology, Danvers MA), Rabbit monoclonal anti-TAK1 (Invitrogen, Grand Island NY), rabbit anti-actin, an affinity isolated antigen specific antibody (Sigma, Saint Louis, MO), rabbit monoclonal anti-Id1 and rabbit monoclonal anti-Id3 (Calbioreagents, San Mateo, CA), rabbit polyclonal anti-GAPDH (Sigma, St. Louis, MO) and rabbit polyclonal pMEK-1/2 (Cell Signaling, Danvers MA)."}, "[7]": {"tested_on": "H1299 cells", "assay": "Western blot analysis of cells in culture", "assay_type": "cell-based", "details": "H1299 cells", "description": "as §1"}, "[8]": {"tested_on": "H1299 Id1-luc cells", "assay": "Id1-promoter luciferase reporter assay", "assay_type": "cell-based", "details": "1.0 μM and 2.5 μM, 48 h", "description": "H1299 cells were stably transfected with the Id1-promoter luciferase reporter. Treated cells were lysed with 1X luciferase lysis buffer (Promega). Samples were added to luciferase assay substrate (Promega) and luminsescence measured by the TD-20/20 Luminometer (Turner Designs/Turner BioSystems, Sunnyvale, CA). Control samples included luciferase assay substrate alone and luciferase assay substrate plus 1X reporter lysis buffer."}, "[9]": {"tested_on": "A549 cells", "assay": "Cell counts (live cells, trypan blue)", "assay_type": "cell-based", "details": "compound alone, 7 days", "description": "(§2) Cells were plated into 6 well plates at 10^5 cells per well and treated with 1 μM DMSO or antagonist for 7 days. The cells were detached with trypsin, stained with trypan blue, and the number of live cells counted using a hemocytometer."}, "[10]": {"tested_on": "H1299 cells", "assay": "Cell counts (live cells, trypan blue)", "assay_type": "cell-based", "description": "as §2"}, "[11]": {"tested_on": "A549 cells", "assay": "Cell death assay (ethidium bromide uptake)", "assay_type": "cell-based", "details": "after 3 days", "description": "(§3) Cells were plated in 6 well plates with 10^6 cells per well. Three days following treatment with inhibitor(s) and/or transfection the adherent and floating cells were harvested and incubated with 0.1 mg/ml of ethidium bromide. Cells that die by necrosis or apoptosis lose membrane integrity and take up ethidium bromide. Immediately after staining approximately 100 cells were counted and the percentage of cells that took up ethidium bromide was determined."}, "[12]": {"tested_on": "H1299 cells", "assay": "Cell death assay (ethidium bromide uptake)", "assay_type": "cell-based", "description": "as §3"}, "[13]": {"biological_target": "T1, Alk2/ACVRR1 (Homo sapiens, UniProt Q04771)", "T1 sequence (Q04771 21-509)": "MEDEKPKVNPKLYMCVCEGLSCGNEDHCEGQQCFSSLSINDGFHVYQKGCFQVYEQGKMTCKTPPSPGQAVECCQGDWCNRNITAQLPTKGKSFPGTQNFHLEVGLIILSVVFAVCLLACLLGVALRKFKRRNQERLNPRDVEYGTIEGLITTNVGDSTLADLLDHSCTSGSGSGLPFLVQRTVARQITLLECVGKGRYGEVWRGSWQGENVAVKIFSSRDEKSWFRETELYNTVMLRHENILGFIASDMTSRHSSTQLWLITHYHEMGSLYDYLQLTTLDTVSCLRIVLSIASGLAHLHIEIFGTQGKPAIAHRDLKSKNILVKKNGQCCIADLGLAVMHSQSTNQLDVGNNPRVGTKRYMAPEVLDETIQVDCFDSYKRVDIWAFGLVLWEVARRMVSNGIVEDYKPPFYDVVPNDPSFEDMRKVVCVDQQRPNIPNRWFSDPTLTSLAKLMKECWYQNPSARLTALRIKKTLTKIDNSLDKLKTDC", "design": "purchased Reaction Biology Corporation (Malvern, PA)", "details": "reported; read-out: IC50 for the BMP type I receptor Alk2; cited from earlier work"}, "[14]": {"details": "24 and 48 h, suppression at higher concentrations"}},
  "data": [
    {"smiles": "c1ccc2c(-c3cnn4cc(-c5ccc(OCCN6CCOCC6)cc5)cnc34)ccnc2c1", "note": "[DMH2]", "values": [
      {"measurement": "percent binding plasma proteins", "setting": "[1]", "result": 98.6, "unit": "% +/−0.7"},
      {"measurement": "percent binding plasma proteins", "setting": "[2]", "result": 98.2, "unit": "% +/−1.5"},
      {"measurement": "elimination half-life", "setting": "[3]", "result": 57, "unit": "min"},
      {"measurement": "systemic plasma clearance", "setting": "[3]", "result": 68.45, "unit": "mL/min/kg"},
      {"measurement": "tumor luminescence (Id1 promoter) compared to baseline", "setting": "[4]", "result": "increased"},
      {"measurement": "increase in the expression of Id1 protein compared to controls", "setting": "[5]; 9 days, twice-daily injection, normalized to GAPDH", "result": 103, "unit": "%"},
      {"measurement": "phosphorylated TAK1 and Smad2 in tumor xenografts", "setting": "[5]; treated for 24 h and 9 days", "result": "increase"},
      {"measurement": "low dose that can cause an increase in the expression of Id1", "setting": "[6]; [14]", "result": 0.5, "unit": "µM"},
      {"measurement": "expression of activated caspase-3", "setting": "[6]; 48 h", "result": "induced"},
      {"measurement": "expression of phosphorylated MEK-1/2", "setting": "[6]; 48 h", "result": "increase"},
      {"measurement": "expression of Smad2", "setting": "[6]; 3 days", "result": "very significant decrease"},
      {"measurement": "expression of TAK1 and phosphorylation of NF-kappa B subunit p65", "setting": "[6]; 3 days", "result": "decrease"},
      {"measurement": "expression of XIAP", "setting": "[6]; after 3 days", "result": "significant decrease"},
      {"measurement": "phosphorylation of TAK1 and Smad2", "setting": "[6]; increasing doses, 48 h", "result": "increase in phosphorylation of TAK1and Smad2 at lower doses, which tapered off at higher doses"},
      {"measurement": "expression of phosphorylated MEK-1/2", "setting": "[7]; 24 and 48 h", "result": "increase"},
      {"measurement": "low dose that can cause an increase in the expression of Id1", "setting": "[7]; [14]", "result": 0.5, "unit": "µM"},
      {"measurement": "expression of activated caspase-3", "setting": "[7]; 48 h", "result": "induced"},
      {"measurement": "expression of Smad2", "setting": "[7]; 3 days", "result": "very significant decrease"},
      {"measurement": "expression of TAK1 and phosphorylation of NF-kappa B subunit p65", "setting": "[7]; 3 days", "result": "decrease"},
      {"measurement": "expression of XIAP", "setting": "[7]; after 3 days (cell line not stated for DMH1 and LDN)", "result": "significant decrease"},
      {"measurement": "phosphorylation of TAK1 and Smad2", "setting": "[7]; increasing doses, 48 h", "result": "increase in phosphorylation of TAK1and Smad2 at lower doses, which tapered off at higher doses"},
      {"measurement": "suppression of Id1 promoter activity in comparison to DMH1", "setting": "[8]", "result": "significantly greater suppression"},
      {"measurement": "growth (cell counts)", "setting": "[9]", "result": "growth suppression"},
      {"measurement": "growth suppression compared to DMH1 and LDN", "setting": "[10]", "result": "significantly greater growth suppression"},
      {"measurement": "growth (cell counts)", "setting": "[10]; compound alone, 7 days", "result": "significant growth suppression"},
      {"measurement": "cell death", "setting": "[11]", "result": "significant cells death"},
      {"measurement": "cell death compared to DMH1 and LDN", "setting": "[12]; H1299 cells", "result": "significantly greater"},
      {"measurement": "cell death in cells expressing mutant XIAP", "setting": "[12]; H1299 cells stably expressing mutant XIAP, 3 days", "result": "resistant to cell death"},
      {"measurement": "cell death", "setting": "[12]; H1299 cells, after 3 days", "result": "significant cells death"},
      {"measurement": "IC50", "setting": "[13]", "result": 42.8, "unit": "nM"}
    ]}
  ]
}
